Data reported in patent US9835633B1, “Compositions and methods for identifying agents for treating apoE-related diseases” (The J. David Gladstone Institutes, priority 2015, dated 2017).

Test system: NSE-apoE4 primary neurons
Assay: apoE fragmentation in NSE-apoE4 primary neurons (western blot)
Format: cell-based, mouse
Conditions: NSE-apoE4 primary neurons treated with compound changing Golgi pH or calcium levels
Protocol: To confirm that PCSK1 and PCSK2 actually contribute to neuronal cleavage of apoE observed in NSE-apoE4 primary neurons, NSE-apoE4 primary neurons were treated with lentivirus encoding either PCSK1 shRNA or PCSK2 shRNA to decrease the endogenous PCSK1 or PCSK2 levels.
Activity of both PCSK1 and PCSK2 is pH and calcium dependent. The optimum pH for PCSK1 and PCSK2 was acidic (pH 6.0 for PCSK1, pH 5.0 for PCSK2). Their activities were enriched in Golgi/trans-Golgi in neurons, which have an acidic environment. Based on this knowledge, it was hypothesized that changing the Golgi pH or calcium levels in neurons would affect PCSK1/PCSK2 activity and further regulate apoE fragmentation. To test this idea, NSE-apoE4 primary neurons were treated with Bafilomycin A, a compound that can increase Golgi pH, or Thapsigargin/2-APB, which can affect the calcium concentration in different cellular compartments.
PCSK1/PCSK2 generated similar apoE fragmentation patterns in N2A-apoE4 cells compared to NSE-apoE4 primary neurons. To determine whether PCSK1/PCSK2-generated apoE fragments are the same as those generated endogenously, lysates from N2A-apoE4 cells overexpressing either PCSK1 or PCSK2, lysates from NSE-apoE4 primary neurons, and the mixture of these two lysates, were tested. ApoE fragmentation was detected by western blot.

Row | Compound | apoE fragmentation after compound treatment
1 | NCCOB(c1ccccc1)c1ccccc1 [2-APB] | decrease of apoE fragmentation
2 | CO/C1=C\C(C)=C\[C@@H](C)[C@@H](O)[C@@H](C)C/C(C)=C/C=C/[C@H](OC)[C@@H]([C@@H](C)[C@@H](O)[C@H](C)[C@@]2(O)C[C@@H](O)[C@H](C)[C@@H](C(C)C)O2)OC1=O [Bafilomycin A] | decrease of apoE fragmentation
3 | C/C=C(/C)C(=O)O[C@H]1C(C)=C2[C@H]([C@@H]1OC(=O)CCCCCCC)[C@@](C)(OC(C)=O)C[C@H](OC(=O)CCC)[C@@]1(O)[C@H]2OC(=O)[C@@]1(C)O [Thapsigargin] | decrease of apoE fragmentation
